Experimental data as given in ChEMBL document CHEMBL5356942, “MEK inhibitors in cancer treatment: structural insights, regulation, recent advances and future perspectives” (RSC Med Chem, 2023).

Tests used:
[1] = system: SMMC-7721; assay: Cytotoxicity against human SMMC-7721 cells assessed as reduction in cell growth incubated for 48 hrs by MTT assay; format: functional, cell-based; conditions: SMMC-7721, 48 h
[2] = system: Hep 3B2; assay: Cytotoxicity against human Hep3B cells assessed as reduction in cell viability incubated for 48 hrs by MTT assay; format: functional, cell-based
[3] = Cytotoxicity against human QSG7701 cells assessed as inhibition of cell growth incubated for 48 hrs by MTT assay; format: functional, cell-based; conditions: QSG7701, 48 h
[4] = Oral bioavailability in ICR mouse at 3 mg/kg measured after 24 hrs by LC-MS/MS analysis; format: ADME, organism-based; conditions: in vivo
[5] = AUC (0 to t) in ICR mouse at 3 mg/kg, po administered via gavage measured after 24 hrs by LC-MS/MS analysis; format: ADME, organism-based; design: time 24 hrs, dose 3 mg/kg, route po; conditions: in vivo
[6] = system: Enterovirus A71; assay: Antiviral activity against human EV71 infected in HEK293 cells assessed as reduction in viral replication at MOI of 1 incubated for 48 hrs by luciferase assay; format: functional, organism-based; conditions: Enterovirus A, HEK293, 48 h
[7] = system: Enterovirus A71; assay: Antiviral activity against human Enterovirus 71 BrCr infected in human RD cells assessed as reduction of virus induced cytopathic effect incubated for 48 hrs by MTS assay; format: functional, organism-based; conditions: Enterovirus A
[8] = system: HEK293; assay: Cytotoxicity against HEK293 cells assessed as reduction in cell viability measured after 66 hrs by MTT assay; format: functional; conditions: Homo sapiens
[9] = Therapeutic index, ratio of CC50 for HEK293 cells to EC50 for antiviral activity against human EV71 infected in HEK293 cells; format: functional
[10] = system: RD; assay: Cytotoxicity against human RD cells assessed as reduction in cell viability incubated for 72 hrs by MTT assay; format: functional
[11] = Therapeutic index, ratio of CC50 for RD cells to EC50 for antiviral activity against human EV71 infected in RD cells; format: functional
[12] = system: A-375; assay: Antiproliferative activity against human A375 cells assessed as reduction in cell growth incubated for 24 hrs by MTT assay; format: functional, cell-based; conditions: A-375, 24 h
[13] = system: COLO 205; assay: Antiproliferative activity against human COLO 205 cells assessed as reduction in cell proliferation incubated for 24 hrs byMTS assay; format: functional, cell-based; conditions: COLO 205, 24 h
[14] = system: HT-29; assay: Antiproliferative activity against human HT-29 cells assessed as reduction in cell growth incubated for 24 hrs by MTT assay; format: functional, cell-based; conditions: HT-29, 24 h
[15] = system: Calu-6; assay: Antiproliferative activity against human Calu-6 cells assessed as reduction in cell growth incubated for 24 hrs by MTT assay; format: functional, cell-based; conditions: Calu-6, 24 h
[16] = system: A-431; assay: Antiproliferative activity against human A-431 cells assessed as reduction in cell proliferation incubated for 24 hrs by MTT assay; format: functional, cell-based; conditions: A-431, 24 h
[17] = system: MDA-MB-231; assay: Cytotoxicity against human MDA-MB-231 cells assessed as reduction in cell viability incubated for 72 hrs by MTT assay; format: functional, cell-based; conditions: MDA-MB-231, 72 h
[18] = system: HeLa; assay: Cytotoxicity against human HeLa cells assessed as reduction in cell viability incubated for 72 hrs by MTT assay; format: functional, cell-based
[19] = system: SMMC-7721; assay: Cytotoxicity against human SMMC-7721 cells assessed as reduction in cell viability incubated for 72 hrs by MTT assay; format: functional, cell-based; conditions: SMMC-7721, 72 h
[20] = Cytotoxicity against human QSG7701 cells assessed as inhibition of cell growth incubated for 72 hrs by MTT assay; format: functional, cell-based; conditions: QSG7701, 72 h
[21] = molecular target: Mitogen-activated protein kinase 1 (Homo sapiens, UniProt P28482); assay: Inhibition of ERK2 phosphorylation in human A375 cells
[22] = system: MCF7; assay: Cytotoxicity against human MCF7 cells assessed as reduction in cell viability incubated for 24 hrs by MTT assay; format: functional, cell-based; conditions: MCF7, 24 h
[23] = system: HT-29; assay: Cytotoxicity against human HT-29 cells assessed as reduction in cell viability incubated for 24 hrs in dark by MTT assay; format: functional, cell-based; conditions: HT-29, 24 h
[24] = system: B16; assay: Cytotoxicity against mouse B16 cells assessed as reduction in cell viability incubated for 24 hrs by MTT assay; format: functional, cell-based; conditions: B16, 24 h
[25] = Inhibition of ERK phosphorylation in human A-431 cells at 1 to 10 uM incubated for 24 hrs by Western blot analysis; format: cell-based; conditions: A-431, 24 h

Chain of Mitogen-activated protein kinase 1 (P28482 whole entry): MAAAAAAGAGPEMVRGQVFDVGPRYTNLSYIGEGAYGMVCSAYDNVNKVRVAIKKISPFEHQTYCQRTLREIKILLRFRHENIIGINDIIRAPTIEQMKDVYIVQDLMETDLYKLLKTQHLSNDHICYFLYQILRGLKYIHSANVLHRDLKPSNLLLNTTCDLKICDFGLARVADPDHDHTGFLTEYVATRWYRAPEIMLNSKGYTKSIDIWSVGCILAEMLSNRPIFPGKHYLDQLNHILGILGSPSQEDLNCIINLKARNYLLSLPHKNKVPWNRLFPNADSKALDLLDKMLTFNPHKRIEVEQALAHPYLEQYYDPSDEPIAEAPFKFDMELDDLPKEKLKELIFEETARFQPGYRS

CCOc1ccc2c(c1)c1c(n2CCN2CCNCC2)-c2cc(C(C)C)ccc2[C@@]2(C)CCC[C@@](C)(C(=O)OC)C12 (stereo not given in full)
IC50 [1]: 1390 nM | IC50 [2]: 730 nM | IC50 [3]: 12.5 µM

Cc1cc(I)ccc1Nc1c(C(=O)NOCCO)cc2ocnc2c1F
bioavailability [4]: 28% | AUCt [5]: 337 ng·h/mL

CCc1c(Cc2ccc(F)cc2)c(=O)oc2cc(OC(=O)N(C)C)ccc12
EC50 [6]: 19.4 µM | EC50 [7]: 10 µM | CC50 [8]: 65.3 µM | Ratio CC50/EC50 [9]: 3.37 | CC50 [10]: 72.9 µM | Ratio CC50/EC50 [11]: 7.29

O=C(NOCCO)c1cc2ocnc2c(F)c1Nc1ccc(F)cc1F
IC50 [12]: 4.3 nM | IC50 [13]: 5.7 nM | IC50 [14]: 2.9 nM | IC50 [15]: 169 nM | IC50 [16]: > 3000 nM

CC(=O)NNC(=O)[C@]12CC[C@@H](C)[C@H](C)C1C1=CCC3[C@@]4(C)Cc5cc6cc(Cl)ccc6cc5C(C)(C)C4CC[C@@]3(C)[C@]1(C)CC2 (stereo not given in full)
IC50 [17]: 120 nM | IC50 [18]: 80 nM | IC50 [19]: 340 nM | IC50 [20]: 10.8 µM

CC(=O)COC[C@H](O)CONC(=O)c1ccc(F)c(F)c1Nc1ccc(F)cc1F
IC50 [21]: 18 nM

N#Cc1c(-c2ccccc2Br)c(N2CCOCC2)n(-c2ccc(Cl)cc2Cl)c1N
IC50 [22]: 1350 nM | IC50 [23]: 1470 nM | IC50 [24]: 4.61 µM

Cn1c(=O)c(F)c(Nc2ccc(I)cc2F)c2c(=O)n(C[C@@H](O)CO)cnc21 [TAK-733]
EC50 [25]: 0.19 nM
